Test results published in patent publication US20250115569A1, “SULFONAMIDE COMPOUNDS FOR THE TREATMENT OF NEUROLOGICAL CONDITIONS” (LARIO THERAPEUTICS LIMITED, priority 2021, published 2025).

Biological target: Cav2.3 (Homo sapiens, UniProt Q15878)
Experiment: Human Cav2.3 channel calcium-influx assay
Assay type: cell-based
Details: Fluo8 fluorescence, HEK-293 T-Rex/Kir2.1/Cav2.3e cells, without pluronic acid, read-out: Cav2.3 (pIC50) (converted)
In short: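 Signal = peak fluorescence (5–130 s) minus baseline (1–2 s), normalized to neutral (0) and inhibitor (−100) controls as % effect. Depolarization used final 20 mM KCl, 130 mM NaCl, 2 mM CaCl2, after 3 min RT compound exposure (30 μM top, half-log, 8 points, 0.3% DMSO) in doxycycline-induced HEK-293 T-Rex/Kir2.1/Cav2.3e-β4-α2δ1 cells with Fluo8 NW.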

Sequence of Cav2.3 (Q15878 whole entry, looked up): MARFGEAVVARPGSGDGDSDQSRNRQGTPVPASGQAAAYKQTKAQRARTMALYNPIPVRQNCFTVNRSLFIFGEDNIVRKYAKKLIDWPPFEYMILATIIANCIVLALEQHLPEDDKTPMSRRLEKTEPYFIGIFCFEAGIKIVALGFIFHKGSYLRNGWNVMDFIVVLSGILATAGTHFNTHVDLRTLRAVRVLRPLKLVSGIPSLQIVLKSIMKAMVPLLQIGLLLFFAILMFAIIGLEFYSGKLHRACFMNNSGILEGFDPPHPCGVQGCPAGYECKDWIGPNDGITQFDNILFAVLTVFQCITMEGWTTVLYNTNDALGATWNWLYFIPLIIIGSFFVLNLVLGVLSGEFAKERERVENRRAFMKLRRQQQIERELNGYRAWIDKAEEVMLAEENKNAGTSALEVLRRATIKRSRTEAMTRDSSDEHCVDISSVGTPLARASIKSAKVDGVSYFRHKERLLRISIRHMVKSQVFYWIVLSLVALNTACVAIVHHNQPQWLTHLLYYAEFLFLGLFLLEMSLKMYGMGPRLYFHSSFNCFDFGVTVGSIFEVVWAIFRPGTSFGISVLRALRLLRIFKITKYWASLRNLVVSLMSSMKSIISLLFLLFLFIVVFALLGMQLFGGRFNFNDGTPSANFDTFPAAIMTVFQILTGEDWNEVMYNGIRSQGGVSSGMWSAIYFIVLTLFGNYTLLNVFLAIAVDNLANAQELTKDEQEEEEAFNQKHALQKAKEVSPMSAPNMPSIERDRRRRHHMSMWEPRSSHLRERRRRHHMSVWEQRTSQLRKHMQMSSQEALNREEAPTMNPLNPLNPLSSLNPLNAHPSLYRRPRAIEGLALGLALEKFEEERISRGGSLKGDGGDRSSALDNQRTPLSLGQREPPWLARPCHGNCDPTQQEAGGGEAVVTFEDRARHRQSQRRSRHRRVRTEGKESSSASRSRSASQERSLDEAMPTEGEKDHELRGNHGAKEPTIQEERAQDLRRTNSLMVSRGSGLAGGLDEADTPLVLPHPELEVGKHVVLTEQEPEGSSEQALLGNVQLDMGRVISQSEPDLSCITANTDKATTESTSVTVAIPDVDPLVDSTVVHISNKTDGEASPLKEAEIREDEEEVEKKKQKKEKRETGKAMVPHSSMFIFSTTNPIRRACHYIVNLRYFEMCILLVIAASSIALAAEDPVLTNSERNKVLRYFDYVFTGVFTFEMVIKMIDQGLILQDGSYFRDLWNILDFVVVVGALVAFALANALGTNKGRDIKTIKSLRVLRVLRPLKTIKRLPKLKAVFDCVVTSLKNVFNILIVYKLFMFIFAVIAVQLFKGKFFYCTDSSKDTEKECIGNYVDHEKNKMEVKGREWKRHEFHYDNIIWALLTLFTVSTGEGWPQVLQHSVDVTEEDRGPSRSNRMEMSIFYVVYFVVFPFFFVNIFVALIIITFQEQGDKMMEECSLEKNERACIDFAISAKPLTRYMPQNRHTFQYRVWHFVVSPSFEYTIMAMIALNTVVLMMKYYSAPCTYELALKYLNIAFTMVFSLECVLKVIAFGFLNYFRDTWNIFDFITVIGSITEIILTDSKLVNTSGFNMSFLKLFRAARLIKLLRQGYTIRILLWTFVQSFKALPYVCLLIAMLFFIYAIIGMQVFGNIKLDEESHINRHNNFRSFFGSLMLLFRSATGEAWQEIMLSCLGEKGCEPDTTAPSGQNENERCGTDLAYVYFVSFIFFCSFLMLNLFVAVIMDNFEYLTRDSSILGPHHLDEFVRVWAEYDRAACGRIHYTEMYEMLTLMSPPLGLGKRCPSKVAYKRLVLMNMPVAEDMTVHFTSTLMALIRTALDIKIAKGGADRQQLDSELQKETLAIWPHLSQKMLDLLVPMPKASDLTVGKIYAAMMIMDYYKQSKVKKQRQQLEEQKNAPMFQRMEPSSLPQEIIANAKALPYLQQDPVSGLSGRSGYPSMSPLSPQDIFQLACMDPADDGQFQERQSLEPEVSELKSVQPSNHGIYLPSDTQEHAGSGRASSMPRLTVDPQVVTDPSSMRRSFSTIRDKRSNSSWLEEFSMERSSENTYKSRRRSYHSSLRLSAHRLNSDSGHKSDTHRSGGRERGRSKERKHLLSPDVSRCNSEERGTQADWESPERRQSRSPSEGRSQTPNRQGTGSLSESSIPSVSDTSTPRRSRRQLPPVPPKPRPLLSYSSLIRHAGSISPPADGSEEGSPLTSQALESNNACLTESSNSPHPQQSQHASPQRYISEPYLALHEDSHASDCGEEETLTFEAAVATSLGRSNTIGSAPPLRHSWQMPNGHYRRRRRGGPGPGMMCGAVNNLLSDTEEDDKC

SMILES | IC50
CCN([C@H](c1ccc(F)cc1)C(F)(F)F)S(=O)(=O)c1ccc2[nH]ncc2n1 [Example 188, (R)—N-ethyl-N-(2,2,2-trifluoro-1-(4-fluorophenyl)ethyl)-1H-pyrazolo[4,3-b]pyridine-5-sulfonamide] | 309 nM
CCN([C@H](c1ccc(F)cc1)C(F)(F)F)S(=O)(=O)c1ccc2[nH]nnc2c1 [Example 189, (R)—N-ethyl-N-(2,2,2-trifluoro-1-(4-fluorophenyl)ethyl)-1H-benzo[d][1,2,3]triazole-5-sulfonamide] | 166 nM
CCN([C@H](c1ccc(F)cc1)C(F)(F)F)S(=O)(=O)c1nn(CC)c2ncccc12 [Example 190, (R)—N,1-diethyl-N-(2,2,2-trifluoro-1-(4-fluorophenyl)ethyl)-1H-pyrazolo[3,4-b]pyridine-3-sulfonamide] | 1000 nM
CN([C@H](c1ccc(Cl)cc1)C(F)(F)F)S(=O)(=O)c1ccn2ccnc2c1 [Example 194, (R)—N-(1-(4-chlorophenyl)-2,2,2-trifluoroethyl)-N-methylimidazo[1,2-a]pyridine-7-sulfonamide] | 240 nM
COc1ccc([C@@H](N(C)S(=O)(=O)c2cn3ccncc3n2)C(F)(F)F)cc1 [Example 196, (R)—N-methyl-N-(2,2,2-trifluoro-1-(4-methoxyphenyl)ethyl)imidazo[1,2-a]pyrazine-2-sulfonamide] | 9330 nM
Cc1ccc([C@@H](N(C)S(=O)(=O)c2cn3ccncc3n2)C(F)(F)F)cc1 [Example 197, (R)—N-methyl-N-(2,2,2-trifluoro-1-(p-tolyl)ethyl)imidazo[1,2-a]pyrazine-2-sulfonamide] | 6170 nM
CCN([C@H](c1ccc(F)cc1)C(F)(F)F)S(=O)(=O)c1cn2ccnc2cn1 [Example 198, (R)—N-ethyl-N-(2,2,2-trifluoro-1-(4-fluorophenyl)ethyl)imidazo[1,2-a]pyrazine-6-sulfonamide] | 324 nM
CN([C@H](c1ccc(Cl)cc1)C(F)(F)F)S(=O)(=O)c1cn2ccnc2cn1 [Example 199, (R)—N-(1-(4-chlorophenyl)-2,2,2-trifluoroethyl)-N-methylimidazo[1,2-a]pyrazine-6-sulfonamide] | 1150 nM
CN([C@H](c1ccc(Cl)cc1)C(F)(F)F)S(=O)(=O)c1cnc2ncsc2c1 [Example 200, (R)—N-(1-(4-chlorophenyl)-2,2,2-trifluoroethyl)-N-methylthiazolo[4,5-b]pyridine-6-sulfonamide] | 282 nM
CN([C@H](c1ccc(Cl)cc1)C(F)(F)F)S(=O)(=O)c1cnc2ccnn2c1 [Example 201, (R)—N-(1-(4-chlorophenyl)-2,2,2-trifluoroethyl)-N-methylpyrazolo[1,5-a]pyrimidine-6-sulfonamide] | 427 nM
CN([C@H](c1ccc(Cl)cc1)C(F)(F)F)S(=O)(=O)c1ccn2nncc2c1 [Example 202, (R)—N-(1-(4-chlorophenyl)-2,2,2-trifluoroethyl)-N-methyl-[1,2,3]triazolo[1,5-a]pyridine-5-sulfonamide] | 288 nM
COc1ccc([C@@H](N(C)S(=O)(=O)c2ccc3nccn3c2)C(F)(F)F)cc1 [Example 203, (R)—N-methyl-N-(2,2,2-trifluoro-1-(4-methoxyphenyl)ethyl)imidazo[1,2-a]pyridine-6-sulfonamide] | 794 nM
CN([C@H](c1ccc(Cl)cc1)C(F)(F)F)S(=O)(=O)c1cc2nncn2cn1 [Example 204, (R)—N-(1-(4-chlorophenyl)-2,2,2-trifluoroethyl)-N-methyl-[1,2,4]triazolo[4,3-c]pyrimidine-7-sulfonamide] | 759 nM
CN([C@H](c1ccc(Cl)cc1)C(F)(F)F)S(=O)(=O)c1ccc(O)nn1 [Example 208, (R)—N-(1-(4-chlorophenyl)-2,2,2-trifluoroethyl)-6-hydroxy-N-methylpyridazine-3-sulfonamide] | 1050 nM
CN([C@H](c1ccc(Cl)cc1)C(F)(F)F)S(=O)(=O)c1cccnn1 [Example 209, (R)—N-(1-(4-chlorophenyl)-2,2,2-trifluoroethyl)-N-methylpyridazine-3-sulfonamide] | 191 nM
COc1ccc([C@@H](N(C)S(=O)(=O)c2cncc(F)c2)C(F)(F)F)cc1 [Example 221, (R)-5-fluoro-N-methyl-N-(2,2,2-trifluoro-1-(4-methoxyphenyl)ethyl)pyridine-3-sulfonamide] | 234 nM
Cc1ccc([C@@H](N(C)S(=O)(=O)c2cncc(F)c2)C(F)(F)F)cc1 [Example 222, (R)-5-fluoro-N-methyl-N-(2,2,2-trifluoro-1-(p-tolyl)ethyl)pyridine-3-sulfonamide] | 245 nM
CN([C@H](c1ccc(F)cc1)C(F)(F)F)S(=O)(=O)c1cncc(F)c1 [Example 223, (R)-5-fluoro-N-methyl-N-(2,2,2-trifluoro-1-(4-fluorophenyl)ethyl)pyridine-3-sulfonamide] | 145 nM
Cc1ccc([C@@H](N(C)S(=O)(=O)c2cncc(C#N)c2)C(F)(F)F)cc1 [Example 225, (R)-5-cyano-N-methyl-N-(2,2,2-trifluoro-1-(p-tolyl)ethyl)pyridine-3-sulfonamide] | 105 nM
[2H]C([2H])([2H])N([C@H](c1ccc(Cl)cc1)C(F)(F)F)S(=O)(=O)c1cncc(C#N)c1 [Example 227, (R)—N-(1-(4-chlorophenyl)-2,2,2-trifluoroethyl)-5-cyano-N-(methyl-d3)pyridine-3-sulfonamide] | 28.2 nM
COc1cc(S(=O)(=O)N(C)[C@H](c2ccc(Cl)cc2)C(F)(F)F)c(OC)nn1 [Example 228, (R)—N-(1-(4-chlorophenyl)-2,2,2-trifluoroethyl)-3,6-dimethoxy-N-methylpyridazine-4-sulfonamide] | 891 nM
CN([C@H](c1ccc(C(F)(F)F)cc1)C(F)(F)F)S(=O)(=O)c1cnc2ccccn12 [Example 235, (R)—N-methyl-N-(2,2,2-trifluoro-1-(4-(trifluoromethyl)phenyl)ethyl)imidazo[1,2-a]pyridine-3-sulfonamide] | 31.6 nM
CCN([C@H](c1ccc(C(F)(F)F)cc1)C(F)(F)F)S(=O)(=O)c1cnc2ccccn12 [Example 237, (R)—N-ethyl-N-(2,2,2-trifluoro-1-(4-(trifluoromethyl)phenyl)ethyl)imidazo[1,2-a]pyridine-3-sulfonamide] | 30.2 nM
CN([C@H](c1ccc(OC(F)F)cc1)C(F)(F)F)S(=O)(=O)c1cncc(C#N)c1 [Example 240, (R)-5-cyano-N-(1-(4-(difluoromethoxy)phenyl)-2,2,2-trifluoroethyl)-N-methylpyridine-3-sulfonamide] | 162 nM
CN([C@H](c1ccc(OC(F)(F)F)cc1)C(F)(F)F)S(=O)(=O)c1cncc(C#N)c1 [Example 241, (R)-5-cyano-N-methyl-N-(2,2,2-trifluoro-1-(4-(trifluoromethoxy)phenyl)ethyl)pyridine-3-sulfonamide] | 105 nM

Further lines, results first:

IC50 | SMILES
35.5 nM | [2H][C@@](c1ccc(Cl)cc1)(N(C)S(=O)(=O)c1cncc(C#N)c1)C(F)(F)F [Example 242, N-(1-(4-chlorophenyl)-2,2,2-trifluoroethyl-1-d)-5-cyano-N-methylpyridine-3-sulfonamide]
4270 nM | CCN([C@@H](c1ccc(OC)cc1)C(F)(F)F)S(=O)(=O)c1cncc(F)c1 [Example 256, (S)—N-ethyl-5-fluoro-N-(2,2,2-trifluoro-1-(4-methoxyphenyl)ethyl)pyridine-3-sulfonamide]
22.9 nM | CCN([C@H](c1ccc(OC)cc1)C(F)(F)F)S(=O)(=O)c1cncc(F)c1 [Example 257, (R)—N-ethyl-5-fluoro-N-(2,2,2-trifluoro-1-(4-methoxyphenyl)ethyl)pyridine-3-sulfonamide]
3550 nM | CCN([C@@H](c1ccc(F)cc1)C(F)(F)F)S(=O)(=O)c1cncc(F)c1 [Example 260, (S)—N-ethyl-5-fluoro-N-(2,2,2-trifluoro-1-(4-fluorophenyl)ethyl)pyridine-3-sulfonamide]
11.7 nM | CCN([C@H](c1ccc(F)cc1)C(F)(F)F)S(=O)(=O)c1cncc(F)c1 [Example 261, (R)—N-ethyl-5-fluoro-N-(2,2,2-trifluoro-1-(4-fluorophenyl)ethyl)pyridine-3-sulfonamide]
39.8 nM | CCN([C@H](c1ccc(F)cc1)C(F)(F)F)S(=O)(=O)c1cnccn1 [Example 265, (R)—N-ethyl-N-(2,2,2-trifluoro-1-(4-fluorophenyl)ethyl)pyrazine-2-sulfonamide]
468 nM | CCN([C@H](c1ccc(C(F)(F)F)c(C)c1)C(F)(F)F)S(=O)(=O)c1cncc(C#N)c1 [Example 268, (R)-5-cyano-N-ethyl-N-(2,2,2-trifluoro-1-(3-methyl-4-(trifluoromethyl)phenyl)ethyl)pyridine-3-sulfonamide]
302 nM | Cc1cc([C@@H](N(C)S(=O)(=O)c2cncc(C#N)c2)C(F)(F)F)ccc1C(F)(F)F [Example 269, (R)-5-cyano-N-methyl-N-(2,2,2-trifluoro-1-(3-methyl-4-(trifluoromethyl)phenyl)ethyl)pyridine-3-sulfonamide]
490 nM | Cc1cc([C@@H](N(C)S(=O)(=O)c2cncc(F)c2)C(F)(F)F)ccc1C(F)(F)F [Example 270, (R)-5-fluoro-N-methyl-N-(2,2,2-trifluoro-1-(3-methyl-4-(trifluoromethyl)phenyl)ethyl)pyridine-3-sulfonamide]
162 nM | CCN([C@H](c1ccc(C(F)(F)F)c(C)c1)C(F)(F)F)S(=O)(=O)c1cncc(F)c1 [Example 271, (R)—N-ethyl-5-fluoro-N-(2,2,2-trifluoro-1-(3-methyl-4-(trifluoromethyl)phenyl)ethyl)pyridine-3-sulfonamide]
1480 nM | CN([C@@H](c1ccc(F)cc1)C(F)(F)F)S(=O)(=O)c1cncc(C#N)c1 [Example 273, (S)-5-Cyano-N-methyl-N-(2,2,2-trifluoro-1-(4-fluorophenyl)ethyl)pyridine-3-sulfonamide]
